In PubChem BioAssay (NCI):
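All cell lines were grown in 96-well plates and treated with compound for 48 hours. TGI denotes the concentration required for complete inhibition of growth.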

Columns and labels:
Test in all cases: NCI anticancer screen, dose series, 48 h
[1] = test system: A498 renal
[2] = test system: SK-MEL-28 melanoma
[3] = test system: HCC-2998 colon
[4] = test system: HCT-116 colon
[5] = test system: COLO 205 colon
[6] = test system: UACC-62 melanoma
[7] = test system: ACHN renal
[8] = test system: HL-60(TB) leukemia
[9] = test system: SF-539 CNS
[10] = test system: SNB-19 CNS
[11] = test system: PC-3 prostate
[12] = test system: RXF 393 renal
[13] = test system: MALME-3M melanoma
[14] = test system: NCI-H226 lung
[15] = test system: A549 NSCLC
[16] = test system: MDA-MB-435
[17] = test system: UO-31 renal
[18] = test system: SW-620 colon
[19] = test system: M14 melanoma
[20] = test system: HS 578T breast
[21] = test system: SF-295 CNS
[22] = test system: IGROV1 ovarian
[23] = test system: SK-OV-3 ovarian
[24] = test system: OVCAR-3 ovarian
[25] = test system: NCI/ADR-RES ovarian
[26] = test system: HT29 colon
[27] = test system: K-562 leukemia
[28] = test system: UACC-257 melanoma
[29] = test system: OVCAR-8 ovarian
[30] = test system: 786-0 renal
[31] = test system: SK-MEL-2 melanoma
[32] = test system: SNB-75 CNS
[33] = test system: OVCAR-4 ovarian
[34] = test system: SF-268 CNS
[35] = test system: CAKI-1 renal
[36] = test system: HCT-15 colon
[37] = test system: HOP-62 NSCLC
[38] = test system: RPMI-8226 leukemia
[39] = test system: NCI-H460 lung
[40] = test system: SN12C renal
[41] = test system: CCRF-CEM leukemia
[42] = test system: TK-10 renal
[43] = test system: T-47D breast
[44] = test system: NCI-H522 lung
[45] = test system: DU-145 prostate
[46] = test system: BT-549 breast
[47] = test system: OVCAR-5 ovarian
[48] = test system: U251 CNS
[49] = test system: MCF7 breast
[50] = test system: KM12 colon
[51] = test system: NCI-H23 lung
[52] = test system: LOX IMVI melanoma
[53] = test system: SR leukemia
[54] = test system: SK-MEL-5 melanoma
[55] = test system: MOLT-4 leukemia
[56] = test system: MDA-N
[57] = test system: MDA-MB-231 breast

c1cc2nnc1SCCCSc1ccc(nn1)SCCCSc1ccc(nn1)SCCCS2
TGI [1]: > 100 µM | TGI [2]: > 100 µM | TGI [3]: > 100 µM | TGI [4]: > 100 µM | TGI [5]: > 100 µM | TGI [6]: > 100 µM | TGI [7]: > 100 µM | TGI [8]: > 100 µM | TGI [9]: > 100 µM | TGI [10]: > 100 µM | TGI [11]: > 100 µM | TGI [12]: > 100 µM | TGI [13]: > 100 µM | TGI [14]: > 100 µM | TGI [15]: > 100 µM | TGI [16]: > 100 µM | TGI [17]: > 100 µM | TGI [18]: > 100 µM | TGI [19]: > 100 µM | TGI [20]: > 100 µM | TGI [21]: > 100 µM | TGI [22]: > 100 µM | TGI [23]: > 100 µM | TGI [24]: > 100 µM | TGI [25]: > 100 µM | TGI [26]: > 100 µM | TGI [27]: > 100 µM | TGI [28]: > 100 µM | TGI [29]: > 100 µM | TGI [30]: > 100 µM | TGI [31]: > 100 µM | TGI [32]: 83.4 µM | TGI [33]: > 100 µM | TGI [34]: > 100 µM | TGI [35]: > 100 µM | TGI [36]: > 100 µM | TGI [37]: > 100 µM | TGI [38]: > 100 µM | TGI [39]: > 100 µM | TGI [40]: > 100 µM | TGI [41]: > 100 µM | TGI [42]: > 100 µM | TGI [43]: > 100 µM | TGI [44]: > 100 µM | TGI [45]: > 100 µM | TGI [46]: > 100 µM | TGI [47]: > 100 µM | TGI [48]: > 100 µM | TGI [49]: > 100 µM | TGI [50]: > 100 µM | TGI [51]: > 100 µM | TGI [52]: > 100 µM | TGI [53]: > 100 µM | TGI [54]: > 100 µM | TGI [55]: > 100 µM | TGI [56]: > 100 µM | TGI [57]: > 100 µM
